Measured values from patent publication US20260250318A1, “COMPOSITIONS AND METHODS FOR CROSSING THE BLOOD BRAIN BARRIER” (VOYAGER THERAPEUTICS, INC., priority 2022, published 2026).

Tests used:
brain = test: Matured TTM-001 and TTM-002 variants, NGS enrichment in mouse brain; format: in vivo, mice; conditions: relative to AAV9 control
[1] = system: brains, heart, liver, muscle, and DRG of the NHPs; test: Maturation of TTM-001 and TTM-002 capsids, NGS enrichment in NHP tissues; format: in vivo; conditions: relative to AAV9 control
Summary of the method: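 Variants carry mutations within and flanking the loop IV peptide insert: positions 450–466 were triplet-randomized, while positions 449–466 received low-frequency point mutations. The combined pool went into two NHPs, and each peptide was scored by NGS enrichment ratio against AAV9.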

[2] = NGS fold-enrichment, brain of mice
[3] = NGS fold-enrichment, mouse brain
[4] = NGS fold-enrichment of RNA, NHP brain
[5] = NGS fold-enrichment, DRG of NHPs
[6] = NGS fold-enrichment, NHP liver DNA
[7] = NGS fold-enrichment, NHP liver RNA
[8] = NGS fold-enrichment, NHP muscle
[9] = NGS fold-enrichment, RNA, brain of NHPs
[10] = NGS fold-enrichment, heart of NHPs
[11] = NGS fold-enrichment, liver DNA of NHPs
[12] = NGS fold-enrichment, liver RNA of NHPs
[13] = NGS fold-enrichment, muscle of NHPs
[14] = NGS fold-enrichment of matured AAV capsid variants, NHP brain, RNA

Sequence | Fold Enrichment relative to AAV9, Brain (Mouse) (brain; [2]) [fold] | Fold Enrichment relative to AAV9, DRG (NHP) [1, 5] [fold] | Fold Enrichment relative to AAV9, Brain (NHP) [1, 9] [fold] | Fold Enrichment relative to AAV9, Heart (NHP) [1, 10] [fold] | Fold Enrichment relative to AAV9, Liver DNA (NHP) [1, 11] [fold] | Fold Enrichment relative to AAV9, Liver RNA (NHP) [1, 12] [fold] | Fold Enrichment relative to AAV9, Muscle (NHP) [1, 13] [fold] | Fold Enrichment relative to AAV9, Brain (Mouse) (brain; mouse brain) [fold] | Fold Enrichment relative to AAV9, Brain (NHP) [1, 14] [fold] | Fold Enrichment relative to AAV9, DRG (NHP) ([1]; NHP DRG) [fold] | Fold Enrichment relative to AAV9, Heart (NHP) ([1]; NHP heart) [fold] | Fold Enrichment relative to AAV9, Liver DNA (NHP) ([1]; NHP liver, DNA) [fold] | Fold Enrichment relative to AAV9, Liver RNA (NHP) ([1]; NHP liver, RNA) [fold] | Fold Enrichment relative to AAV9, Muscle (NHP) ([1]; NHP muscle) [fold] | other results
KTINGSGSPHSKAQHRIT | 127.000 | 0.105 | 76.849 | 0.499 | 0.214 | 1.424 | 0.170 |  |  |  |  |  |  |  | Fold Enrichment relative to AAV9, Brain (Mouse) (brain; [3]): 127.000 fold; Fold Enrichment relative to AAV9, Brain (NHP) [1, 4]: 76.849 fold; Fold Enrichment relative to AAV9, DRG (NHP) ([1]; NGS fold-enrichment, NHP DRG): 0.105 fold; Fold Enrichment relative to AAV9, Heart (NHP) ([1]; NGS fold-enrichment, NHP heart): 0.499 fold; Fold Enrichment relative to AAV9, Liver DNA (NHP) [1, 6]: 0.214 fold; Fold Enrichment relative to AAV9, Liver RNA (NHP) [1, 7]: 1.424 fold; Fold Enrichment relative to AAV9, Muscle (NHP) [1, 8]: 0.170 fold
KTINGSGSPHSKAQIGHT |  |  |  |  |  |  |  | 99.262 | 57.769 | 0.024 | 0.000 | 0.154 | 0.281 | 0.000 | 
KTINGSGSPHSKAQIGMT |  |  |  |  |  |  |  | 134.585 | 59.013 | 0.081 | 106.528 | 0.248 | 1.003 | 0.000 | 
KTINGSGSPHSKAQIPPT | 87.661 | 0.000 | 61.258 | 0.000 | 0.115 | 0.758 | 0.000 |  |  |  |  |  |  |  | 
KTINGSGSPHSKAQKFET | 65.588 | 0.000 | 75.788 | 0.000 | 0.093 | 0.108 | 0.028 |  |  |  |  |  |  |  | Fold Enrichment relative to AAV9, Brain (Mouse) (brain; [3]): 65.588 fold; Fold Enrichment relative to AAV9, Brain (NHP) [1, 4]: 75.788 fold; Fold Enrichment relative to AAV9, DRG (NHP) ([1]; NGS fold-enrichment, NHP DRG): 0.000 fold; Fold Enrichment relative to AAV9, Heart (NHP) ([1]; NGS fold-enrichment, NHP heart): 0.000 fold; Fold Enrichment relative to AAV9, Liver DNA (NHP) [1, 6]: 0.093 fold; Fold Enrichment relative to AAV9, Liver RNA (NHP) [1, 7]: 0.108 fold; Fold Enrichment relative to AAV9, Muscle (NHP) [1, 8]: 0.028 fold
KTINGSGSPHSKAQKIST |  |  |  |  |  |  |  | 51.115 | 50.285 | 0.000 | 0.000 | 0.302 | 0.108 | 0.088 | 
KTINGSGSPHSKAQKLNT | 68.637 | 0.073 | 67.782 | 0.092 | 0.201 | 1.232 | 0.000 |  |  |  |  |  |  |  | 
KTINGSGSPHSKAQKQQD | 110.196 | 0.000 | 70.116 | 0.024 | 0.083 | 0.064 | 0.000 |  |  |  |  |  |  |  | 
KTINGSGSPHSKAQKTLT |  |  |  |  |  |  |  | 66.415 | 56.844 | 0.000 | 0.017 | 1.400 | 1.800 | 0.009 | 
KTINGSGSPHSKAQKVIT |  |  |  |  |  |  |  | 95.147 | 53.273 | 0.000 | 0.000 | 0.402 | 0.357 | 0.000 | 
KTINGSGSPHSKAQLHHT |  |  |  |  |  |  |  | 58.418 | 56.815 | 0.025 | 0.000 | 0.368 | 0.712 | 0.010 | 
KTINGSGSPHSKAQLPST |  |  |  |  |  |  |  | 84.918 | 56.238 | 0.005 | 4.258 | 0.185 | 1.040 | 0.001 | 
KTINGSGSPHSKAQMPNT |  |  |  |  |  |  |  | 66.040 | 52.408 | 0.084 | 0.036 | 0.359 | 0.057 | 0.025 | 
KTINGSGSPHSKAQMPST |  |  |  |  |  |  |  | 114.331 | 54.986 | 1.691 | 0.039 | 0.202 | 0.450 | 0.028 | 
KTINGSGSPHSKAQNIII |  |  |  |  |  |  |  | 76.742 | 56.630 | 0.000 | 0.062 | 0.056 | 0.099 | 0.123 | 
KTINGSGSPHSKAQNNDQ |  |  |  |  |  |  |  | 59.664 | 53.226 | 0.000 | 0.000 | 0.046 | 0.593 | 0.000 | 
KTINGSGSPHSKAQNTHD |  |  |  |  |  |  |  | 81.189 | 58.108 | 0.000 | 0.027 | 0.126 | 0.410 | 0.000 | 
KTINGSGSPHSKAQNTYA | 101.715 | 0.000 | 59.603 | 0.000 | 0.346 | 0.425 | 0.000 |  |  |  |  |  |  |  | 
KTINGSGSPHSKAQPAKT | 215.275 | 0.331 | 111.472 | 0.000 | 1.796 | 0.044 | 1.089 |  |  |  |  |  |  |  | Fold Enrichment relative to AAV9, Brain (Mouse) (brain; [3]): 215.275 fold; Fold Enrichment relative to AAV9, Brain (NHP) [1, 4]: 111.472 fold; Fold Enrichment relative to AAV9, DRG (NHP) ([1]; NGS fold-enrichment, NHP DRG): 0.331 fold; Fold Enrichment relative to AAV9, Heart (NHP) ([1]; NGS fold-enrichment, NHP heart): 0.000 fold; Fold Enrichment relative to AAV9, Liver DNA (NHP) [1, 6]: 1.796 fold; Fold Enrichment relative to AAV9, Liver RNA (NHP) [1, 7]: 0.044 fold; Fold Enrichment relative to AAV9, Muscle (NHP) [1, 8]: 1.089 fold
KTINGSGSPHSKAQPART |  |  |  |  |  |  |  | 127.301 | 55.513 | 0.000 | 0.000 | 0.991 | 1.294 | 0.328 | 
KTINGSGSPHSKAQPLGT |  |  |  |  |  |  |  | 68.656 | 53.049 | 0.015 | 0.004 | 0.222 | 0.515 | 0.001 | 
